One molecule from patent US12303498B2, “ALK5 inhibitors as skeletal muscle hypertrophy inducers” (CYTOO, priority 2018, dated 2025) can be followed below.

In general, EC50 refers to the concentration that produces a half-maximal response.

Molecules are shown by their SMILES. Like-named read-outs stand apart in the source and are kept apart here.

Test [1] deals with Human primary myoblasts (healthy donors 3, 1 and 5). Description: MyoScreen hypertrophy assay on myotubes from healthy donors. The following applies: for EC50 / activity at 10 µM: Homo sapiens, Myoblast. Format: cell-based. As to the method: (§1) Healthy donor primary skeletal cells (Donor 1, Donor 3 and Donor 5) were Clonetics™ Human Skeletal Muscle Myoblasts (HSMM). In addition, cells from three DMD (Duchenne muscular dystrophy) donors (Donor Z, W and D1) and from a healthy donor (Donor A) were sourced.
(§2) Hypertrophy and Atrophy Rescue assays were performed using an in vitro fully automated human myotube model called MyoScreen™ (Cytoo, France). This model relies on a tight control of the microenvironment that guides the differentiation of human primary myoblasts. Myotubes formed on MyoScreen™ micropatterns present a high level of maturation together with a highly standardized morphology.
(§3) Human primary myoblasts from donors were seeded in MyoScreen™ micropatterned 96-well plates (Cytoo, France), let them adhere for 24 h in growth medium, then run the differentiation in a low horse serum medium for at least 5 days.
(§4) At Day 0, MyoScreen™ plates (Cytoo, France) containing micropatterns were pre-filled with 200 μl/well of growth medium and stored in the incubator at 37° C. Human primary myoblasts were detached from the flasks, count, and seeded into the plates with 15 000 cells per well in 100 μl of growth medium.
(§5) At Day 1, the growth medium was changed for a differentiation medium, 300 μl/well (DMEM with 0.1% horse serum) in which myoblasts started differentiating and forming myotubes.
(§6) At Day 2, the differentiation medium was changed. Then candidate compounds were diluted with differentiation medium and transferred into the plate. The final concentration of DMSO should be not higher than 0.1%. At least 6 wells were treated with the vehicle as a basal control, and 6 wells were treated with IGF-1 at 100 ng/ml as positive hypertrophy control.
(§7) At Day 6, cells were fixed with formalin 5% for 30 min at room temperature, then permeabilized with Triton X-100 at 0.1% in PBS for 15 min, and blocked with PBS+BSA 1% for 20 minutes. Myotubes were incubated with first antibody against Troponin T in blocking buffer for 1 h30, washed three times with PBS, incubated with secondary antibody and Hoescht ( 1/10000) for 1 h30, and washed three times with PBS.
(§8) Images were acquired at 10× magnification with an Operetta High Content Imaging System. Image processing and analysis were performed with dedicated algorithms developed on the Acapella High Content Imaging Software (Perkin Elmer) by CYTOO. Eleven fields per well were acquired.
First, segmentation of myotubes and nuclei were done using respectively the Troponin T staining intensity and the Hoechst staining. […] The threshold of segmentation was set-up in order to avoid detecting the background noise and eliminate aberrant small myotube structures.
(§9) Then, an image clean-up step was performed on the Troponin T images in order to remove myotubes that touch the border of the image. The final valid myotubes were used to extract myotube morphology parameters including the myotube width and area, and the number of nuclei per myotube.
Nuclei Count, Fusion Index, Mean myotube Area and Number of nuclei per myotube have been validated as relevant and sensitive readouts of myotube differentiation as well as atrophic and hypertrophic induction.
A primary screening was run to identify hypertrophy compounds that increase the myotube differentiation and size. Candidate compounds were tested at 10 μM in monoplicate on Donor 3 cells.
A retest was run, by cherry picking (same compound batch as primary screening): each hit was tested in the same conditions as in the Primary Screening (Donor 3, 10 μM) in six well replicates.

The test system of test [2] is cells from DMD donors (Donor Z, W and D1). Kind of test: MyoScreen hypertrophy assay on myotubes from DMD donors. The test is classed as cell-based, human. Conditions: fusion index (compound)*100/basal control. The protocol:
as §1, §2, §3, §4, §5, §6, §7, §8
First, segmentation of myotubes and nuclei were done using respectively the Troponin T staining intensity and the Hoechst staining. One to two myotubes per micropattern were usually identified (a myotube is a troponin T staining area that includes at least 2 nuclei). The threshold of segmentation was set-up in order to avoid detecting the background noise and eliminate aberrant small myotube structures. At the end of this first step, specific readouts were calculated in the whole well, like the nuclei count and the fusion index (percentage of nuclei included in troponin T staining) Usually around 50 to 60 myotubes were detected per well in a control condition.
as §9

For test [3], the system named is AChR clusters in MyoScreen myotubes. Description: Acetylcholine receptor clustering assay. Conditions: 8 days of differentiation including 7 days of drug treatment. Format: cell-based, human. The protocol: The MyoScreen™ protocol was performed as described in the Hypertrophy and Atrophy rescue assay described in Example 1 but was stopped at Day 9 instead of Day 6. At the end of the assay, AchR were immunostained using a specific antibody in addition to Troponin T and nuclei. Images were acquired at ×20 with an Operetta High Content Imaging System from Perkin Elmer. Image processing and analyses were performed with a dedicated algorithm developed on the Acapella High Content Imaging Software (Perkin Elmer). Specific readouts were calculated in each well: nuclei count and myotube fusion index, number of AchR, AchR mean area, AchR total area normalized by the myotube total area.
Remarkably, when labeled with a specific anti-AChR antibody, MyoScreen myotubes at 6 days post-differentiation display AChR clusters punctuated along the sarcolemma membrane in the middle of the myotube fibre and in distinct regions at the ends of myotubes. To develop an automated AChR cluster assay, an AChR detection routine was developed that was sensitive and robust enough to analyze aggregate number and size clusters in images using the Operetta/Acapella system.

The subject of test [4] is Donor Z (DMD donor) myotubes. Kind of test: Hypertrophy assay, combinations ALK5 inhibitor and glucocorticoid. The following applies: 4 days of treatment, prednisolone 10 nM, RepSox or GW788388 300 nM, alone or combined. The test is classed as cell-based, human.
For test [5], the system named is Myotubes from Donors 5 and A. An excerpt: Cells were washed with calcium buffer containing (in mM): 130 NaCl, 5.4 KCl, 1.8 CaCl2, 0.8 MgCl2, 5.6 D-glucose, 10 Hepes, pH 7.4. […] After washing to remove unloaded dye, myotube responses to electrical stimulation pulses were monitored using the FDSS/μCELL/EFS from Hamamatsu Photonics. Twitch stimulations were run at 0.2 Hz with pulse width 50 ms 5V for 60 seconds. Tetanus stimulation was run at 30 Hz with pulse width 15 ms 3V for 20 seconds. The Fluo-4 total fluorescence intensity is measured in each well. For data presentation, fluorescence intensities (F) were normalized to the mean intensity of the first timepoints (F/F0).

Regarding `Cc1cccc(-c2n[nH]cc2-c2ccc3ncccc3n2)n1` [RepSox], the “activity in dose responses on three healthy donors” value in test [1] (Donors 3, 5 and 1) is on record as “active on all donors”. Besides, the EC50 in test [1] (first dose response assay, healthy Donor 1, read-out: Donor 1 EC50) came to 560 nM; in test [1] (first dose response assay, healthy Donor 3, read-out: Donor 3 EC50) it was 5 nM; in test [1] (first dose response assay, healthy Donor 5, read-out: Donor 5 EC50), 2.5 nM; in test [1] (second dose response assay, healthy Donor 3, read-out: EC50), 5 nM. Besides, the activity at 10 µM was found to be 183% in test [1] (healthy Donor 3, monoplicate (IGF-1 100 ng/ml), % Activity = Myotube fusion index (compound)*100/Myotube Fusion index (basal control), read-out: Primary screening (% Activity)) and 171% in test [1] (healthy Donor 3, six well replicates (IGF-1 100 ng/ml), fusion index vs basal control, read-out: Retest (% Activity)). Besides, the “Donor 1 % Activity” value in test [1] (first dose response assay, healthy Donor 1) worked out at 143%. The “Donor 3 % Activity” value in test [1] (first dose response assay, healthy Donor 3) turned out to be 140%. Besides, the “Donor 5 % Activity” value in test [1] (first dose response assay, healthy Donor 5) is on record as 204%. The “increase in the fusion index or/and myotube area readouts” value in test [1] (primary screening and retest, Donor 3, 10 μM) was greater than 170%. Moreover, in test [1] (second dose response assay, healthy Donor 3), the “% Activity” value was 140%. Also, the “Donor D1 (% Activity)” value in test [2] (DMD Donor D1) was found to be 210%. Further, in test [2] (DMD Donor W), the “Donor W (% Activity)” value was found to be 120%. The “Donor Z (% Activity)” value in test [2] (DMD Donor Z) turned out to be 176%. Moreover, in test [3], the AChR clusters entry is “substantially more AChR clusters”. For the same molecule, in test [3] (vs control myotubes), the “total AChR area increase” value is 6 fold. The “increase in Fusion index” value in test [4] was found to be 100%. The “increase in Myotube mean area” value in test [4] was 68%. Moreover, the tetanus response entry in test [5] (Donor 5 myotubes, RepSox 3 to 500 nM, tetanus stimulation 30 Hz, vs Control myotubes) is reported as “increases with RepSox concentrations”. In addition, in test [5] (Donor A and Donor 5 myotubes, RepSox 300 nM for 5 days, twitch 0.2 Hz), the “calcium peak amplitude on repeated twitch electrical stimulations” value is on record as “twice higher”.
